Experimental data: PMC4490784, “Compensatory induction of MYC expression by sustained CDK9 inhibition via a BRD4-dependent mechanism” (eLife, 2015)

Tests used:
Assay in all cases: KINOMEscan binding assay
LRRK2 = target: T1, LRRK2 (Homo sapiens, UniProt Q5S007); conditions: 1 µM i-CDK9; read-out: % Retention on Solid Support
T1 construct: purchased DiscoveRx KINOMEscan
Summary of the method: (§1)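 Active site-directed competition binding measured kinase engagement within a panel of over 400 kinases. i-CDK9 was tested at two concentrations, 1 and 10 µM.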

PAK4 = target: T2, PAK4 (Homo sapiens, UniProt O96013); conditions: read-out: % Retention on Solid Support
T2 construct: purchased DiscoveRx KINOMEscan
Summary of the method: as §1

RIPK2 = target: T3, RIPK2 (Homo sapiens, UniProt O43353); conditions: read-out: % Retention on Solid Support
T3 construct: purchased DiscoveRx KINOMEscan
Summary of the method: as §1

CDKL2 = target: T4, CDKL2 (Homo sapiens, UniProt Q92772); conditions: read-out: % Retention on Solid Support
T4 construct: purchased DiscoveRx KINOMEscan
Summary of the method: as §1

CDK2 = target: T5, CDK2 (Homo sapiens, UniProt P24941)
T5 construct: purchased DiscoveRx KINOMEscan
Summary of the method: as §1

PIK3CA(I800L) = target: T6, PIK3CA(I800L) (Homo sapiens, UniProt P42336, I800L); conditions: 1 µM i-CDK9; read-out: % Retention on Solid Support
T6 construct: purchased DiscoveRx KINOMEscan
Summary of the method: as §1

JNK1 = target: T7, JNK1 (Homo sapiens, UniProt P45983)
T7 construct: purchased DiscoveRx KINOMEscan
Summary of the method: as §1

RET(V804L) = target: T8, RET(V804L) (Homo sapiens, UniProt P07949, V804L); conditions: read-out: % Retention on Solid Support
T8 construct: purchased DiscoveRx KINOMEscan
Summary of the method: as §1

FGFR3(G697C) = target: T9, FGFR3(G697C) (Homo sapiens, UniProt P22607, G697C); conditions: read-out: % Retention on Solid Support
T9 construct: purchased DiscoveRx KINOMEscan
Summary of the method: as §1

AURKC = target: T10, AURKC (Homo sapiens, UniProt Q9UQB9); conditions: read-out: % Retention on Solid Support
T10 construct: purchased DiscoveRx KINOMEscan
Summary of the method: as §1

ERK2 = target: T11, ERK2 (Homo sapiens, UniProt P28482); conditions: read-out: % Retention on Solid Support
T11 construct: purchased DiscoveRx KINOMEscan
Summary of the method: as §1

CSNK2A2 = target: T12, CSNK2A2 (Homo sapiens, UniProt P19784); conditions: read-out: % Retention on Solid Support
T12 construct: purchased DiscoveRx KINOMEscan
Summary of the method: as §1

PRKD3 = target: T13, PRKD3 (Homo sapiens, UniProt O94806); conditions: read-out: % Retention on Solid Support
T13 construct: purchased DiscoveRx KINOMEscan
Summary of the method: as §1

PIK3CA(C420R) = target: T14, PIK3CA(C420R) (Homo sapiens, UniProt P42336, C420R); conditions: read-out: % Retention on Solid Support
T14 construct: purchased DiscoveRx KINOMEscan
Summary of the method: as §1

AXL = target: T15, AXL (Homo sapiens, UniProt P30530); conditions: read-out: % Retention on Solid Support
T15 construct: purchased DiscoveRx KINOMEscan
Summary of the method: as §1

NEK3 = target: T16, NEK3 (Homo sapiens, UniProt P51956); conditions: 1 µM i-CDK9; read-out: % Retention on Solid Support
T16 construct: purchased DiscoveRx KINOMEscan
Summary of the method: as §1

MAP4K3 = target: T17, MAP4K3 (Homo sapiens, UniProt Q8IVH8)
T17 construct: purchased DiscoveRx KINOMEscan
Summary of the method: as §1

ADCK3 = target: T18, ADCK3 (Homo sapiens, UniProt Q8NI60); conditions: read-out: % Retention on Solid Support
T18 construct: purchased DiscoveRx KINOMEscan
Summary of the method: as §1

DYRK1B = target: T19, DYRK1B (Homo sapiens, UniProt Q9Y463); conditions: read-out: % Retention on Solid Support
T19 construct: purchased DiscoveRx KINOMEscan
Summary of the method: as §1

EPHB2 = target: T20, EPHB2 (Homo sapiens, UniProt P29323)
T20 construct: purchased DiscoveRx KINOMEscan
Summary of the method: as §1

MELK = target: T21, MELK (Homo sapiens, UniProt Q14680); conditions: read-out: % Retention on Solid Support
T21 construct: purchased DiscoveRx KINOMEscan
Summary of the method: as §1

[1] = target: T22, ABL1(Y253F)-non phosphorylated (Homo sapiens, UniProt P00519, Y253F); conditions: read-out: % Retention on Solid Support
T22 construct: purchased DiscoveRx KINOMEscan
Summary of the method: as §1

MAP3K3 = target: T23, MAP3K3 (Homo sapiens, UniProt Q99759); conditions: read-out: % Retention on Solid Support
T23 construct: purchased DiscoveRx KINOMEscan
Summary of the method: as §1

CSNK1G1 = target: T24, CSNK1G1 (Homo sapiens, UniProt Q9HCP0)
T24 construct: purchased DiscoveRx KINOMEscan
Summary of the method: as §1

DLK = target: T25, DLK (Homo sapiens, UniProt Q12852)
T25 construct: purchased DiscoveRx KINOMEscan
Summary of the method: as §1

TESK1 = target: T26, TESK1 (Homo sapiens, UniProt Q15569); conditions: read-out: % Retention on Solid Support
T26 construct: purchased DiscoveRx KINOMEscan
Summary of the method: as §1

AKT1 = target: T27, AKT1 (Homo sapiens, UniProt P31749); conditions: read-out: % Retention on Solid Support
T27 construct: purchased DiscoveRx KINOMEscan
Summary of the method: as §1

TGFBR1 = target: T28, TGFBR1 (Homo sapiens, UniProt P36897); conditions: read-out: % Retention on Solid Support
T28 construct: purchased DiscoveRx KINOMEscan
Summary of the method: as §1

AMPK-alpha2 = target: T29, AMPK-alpha2 (Homo sapiens, UniProt P54646); conditions: read-out: % Retention on Solid Support
T29 construct: purchased DiscoveRx KINOMEscan
Summary of the method: as §1

CSNK1A1 = target: T30, CSNK1A1 (Homo sapiens, UniProt P48729); conditions: 1 µM i-CDK9; read-out: % Retention on Solid Support
T30 construct: purchased DiscoveRx KINOMEscan
Summary of the method: as §1

T2 sequence (O96013 whole entry): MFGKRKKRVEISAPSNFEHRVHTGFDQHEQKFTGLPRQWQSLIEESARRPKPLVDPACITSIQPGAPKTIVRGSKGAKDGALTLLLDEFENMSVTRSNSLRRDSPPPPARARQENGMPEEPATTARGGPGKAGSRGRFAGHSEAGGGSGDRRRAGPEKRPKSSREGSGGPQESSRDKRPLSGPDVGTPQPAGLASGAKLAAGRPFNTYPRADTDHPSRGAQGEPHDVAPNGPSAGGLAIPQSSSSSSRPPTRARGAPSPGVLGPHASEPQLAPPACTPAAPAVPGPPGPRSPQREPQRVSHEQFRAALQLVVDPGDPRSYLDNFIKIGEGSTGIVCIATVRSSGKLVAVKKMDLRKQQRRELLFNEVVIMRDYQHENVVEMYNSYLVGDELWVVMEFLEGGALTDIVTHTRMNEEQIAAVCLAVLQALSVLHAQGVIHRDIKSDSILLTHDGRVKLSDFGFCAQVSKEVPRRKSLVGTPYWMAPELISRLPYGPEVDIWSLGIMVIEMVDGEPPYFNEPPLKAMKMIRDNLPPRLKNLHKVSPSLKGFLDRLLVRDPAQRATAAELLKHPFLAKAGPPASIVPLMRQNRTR
T17 sequence (Q8IVH8 whole entry): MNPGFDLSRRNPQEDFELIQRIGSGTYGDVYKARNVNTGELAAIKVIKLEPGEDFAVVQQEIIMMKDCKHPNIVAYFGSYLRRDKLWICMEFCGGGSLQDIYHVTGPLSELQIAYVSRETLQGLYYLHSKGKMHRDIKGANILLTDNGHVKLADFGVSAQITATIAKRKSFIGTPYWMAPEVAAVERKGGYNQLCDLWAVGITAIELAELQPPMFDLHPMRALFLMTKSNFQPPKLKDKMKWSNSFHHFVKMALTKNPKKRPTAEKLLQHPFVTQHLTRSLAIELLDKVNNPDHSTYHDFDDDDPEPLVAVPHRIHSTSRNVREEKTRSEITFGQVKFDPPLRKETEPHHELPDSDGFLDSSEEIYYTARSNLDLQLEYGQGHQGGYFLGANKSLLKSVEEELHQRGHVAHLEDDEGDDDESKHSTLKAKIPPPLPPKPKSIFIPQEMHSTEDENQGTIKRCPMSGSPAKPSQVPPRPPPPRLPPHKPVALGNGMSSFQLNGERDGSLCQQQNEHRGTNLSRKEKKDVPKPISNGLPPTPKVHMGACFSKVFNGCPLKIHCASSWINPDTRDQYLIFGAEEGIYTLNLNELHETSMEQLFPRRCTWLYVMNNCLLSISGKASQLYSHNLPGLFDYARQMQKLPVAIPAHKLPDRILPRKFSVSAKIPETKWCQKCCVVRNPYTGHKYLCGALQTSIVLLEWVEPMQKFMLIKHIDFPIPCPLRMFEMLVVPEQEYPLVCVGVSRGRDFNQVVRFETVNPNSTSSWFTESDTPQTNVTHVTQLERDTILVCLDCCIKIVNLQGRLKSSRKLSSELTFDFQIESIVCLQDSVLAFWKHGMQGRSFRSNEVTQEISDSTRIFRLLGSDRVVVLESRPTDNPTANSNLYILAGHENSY
T27 sequence (P31749 whole entry): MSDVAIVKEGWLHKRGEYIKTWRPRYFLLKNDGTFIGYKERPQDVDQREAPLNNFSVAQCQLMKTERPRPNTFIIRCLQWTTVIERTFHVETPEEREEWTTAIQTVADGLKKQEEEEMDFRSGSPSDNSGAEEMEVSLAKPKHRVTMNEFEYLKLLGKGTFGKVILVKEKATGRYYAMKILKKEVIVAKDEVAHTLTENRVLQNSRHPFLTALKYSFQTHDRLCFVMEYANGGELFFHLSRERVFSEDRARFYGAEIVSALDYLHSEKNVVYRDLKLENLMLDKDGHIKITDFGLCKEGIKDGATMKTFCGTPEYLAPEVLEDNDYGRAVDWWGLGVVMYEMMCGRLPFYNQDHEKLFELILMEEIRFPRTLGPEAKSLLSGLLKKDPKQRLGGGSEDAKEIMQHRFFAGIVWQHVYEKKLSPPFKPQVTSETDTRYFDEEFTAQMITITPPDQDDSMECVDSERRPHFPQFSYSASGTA
T12 sequence (P19784 whole entry): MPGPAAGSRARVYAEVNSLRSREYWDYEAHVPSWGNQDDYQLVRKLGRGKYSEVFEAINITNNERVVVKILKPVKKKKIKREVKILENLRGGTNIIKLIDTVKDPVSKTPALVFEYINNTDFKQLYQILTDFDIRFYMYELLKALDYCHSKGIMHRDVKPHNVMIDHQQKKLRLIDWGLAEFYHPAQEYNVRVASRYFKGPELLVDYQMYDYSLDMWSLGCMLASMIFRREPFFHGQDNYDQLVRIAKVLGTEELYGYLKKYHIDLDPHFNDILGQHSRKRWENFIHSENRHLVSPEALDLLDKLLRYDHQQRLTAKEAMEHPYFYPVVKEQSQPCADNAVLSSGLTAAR
T19 sequence (Q9Y463 whole entry): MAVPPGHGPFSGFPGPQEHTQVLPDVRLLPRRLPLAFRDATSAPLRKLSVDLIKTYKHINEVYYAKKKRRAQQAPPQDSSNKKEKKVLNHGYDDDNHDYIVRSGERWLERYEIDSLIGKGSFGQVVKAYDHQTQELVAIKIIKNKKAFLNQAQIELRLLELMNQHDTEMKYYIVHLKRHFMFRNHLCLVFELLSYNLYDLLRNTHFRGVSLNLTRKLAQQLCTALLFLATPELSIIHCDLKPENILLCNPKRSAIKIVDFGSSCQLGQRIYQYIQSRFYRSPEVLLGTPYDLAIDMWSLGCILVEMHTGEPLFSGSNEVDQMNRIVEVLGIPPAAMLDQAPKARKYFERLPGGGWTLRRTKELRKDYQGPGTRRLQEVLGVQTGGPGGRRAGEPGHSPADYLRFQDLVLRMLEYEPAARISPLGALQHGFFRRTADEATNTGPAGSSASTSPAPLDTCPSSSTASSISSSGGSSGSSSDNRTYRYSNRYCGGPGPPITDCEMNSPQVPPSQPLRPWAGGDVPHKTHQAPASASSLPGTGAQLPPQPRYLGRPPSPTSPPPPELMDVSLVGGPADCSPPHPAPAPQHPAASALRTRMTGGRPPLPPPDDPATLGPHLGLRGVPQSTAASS
T11 sequence (P28482 whole entry): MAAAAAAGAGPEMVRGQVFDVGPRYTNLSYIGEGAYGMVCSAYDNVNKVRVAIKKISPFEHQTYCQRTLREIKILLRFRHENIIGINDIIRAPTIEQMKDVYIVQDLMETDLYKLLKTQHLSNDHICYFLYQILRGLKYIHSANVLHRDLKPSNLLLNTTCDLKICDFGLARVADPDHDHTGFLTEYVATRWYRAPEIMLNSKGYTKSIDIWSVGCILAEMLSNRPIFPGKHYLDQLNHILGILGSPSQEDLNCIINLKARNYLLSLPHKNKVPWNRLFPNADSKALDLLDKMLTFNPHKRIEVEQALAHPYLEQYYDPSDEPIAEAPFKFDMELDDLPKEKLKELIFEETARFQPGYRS
T14 sequence (P42336 whole entry C420R): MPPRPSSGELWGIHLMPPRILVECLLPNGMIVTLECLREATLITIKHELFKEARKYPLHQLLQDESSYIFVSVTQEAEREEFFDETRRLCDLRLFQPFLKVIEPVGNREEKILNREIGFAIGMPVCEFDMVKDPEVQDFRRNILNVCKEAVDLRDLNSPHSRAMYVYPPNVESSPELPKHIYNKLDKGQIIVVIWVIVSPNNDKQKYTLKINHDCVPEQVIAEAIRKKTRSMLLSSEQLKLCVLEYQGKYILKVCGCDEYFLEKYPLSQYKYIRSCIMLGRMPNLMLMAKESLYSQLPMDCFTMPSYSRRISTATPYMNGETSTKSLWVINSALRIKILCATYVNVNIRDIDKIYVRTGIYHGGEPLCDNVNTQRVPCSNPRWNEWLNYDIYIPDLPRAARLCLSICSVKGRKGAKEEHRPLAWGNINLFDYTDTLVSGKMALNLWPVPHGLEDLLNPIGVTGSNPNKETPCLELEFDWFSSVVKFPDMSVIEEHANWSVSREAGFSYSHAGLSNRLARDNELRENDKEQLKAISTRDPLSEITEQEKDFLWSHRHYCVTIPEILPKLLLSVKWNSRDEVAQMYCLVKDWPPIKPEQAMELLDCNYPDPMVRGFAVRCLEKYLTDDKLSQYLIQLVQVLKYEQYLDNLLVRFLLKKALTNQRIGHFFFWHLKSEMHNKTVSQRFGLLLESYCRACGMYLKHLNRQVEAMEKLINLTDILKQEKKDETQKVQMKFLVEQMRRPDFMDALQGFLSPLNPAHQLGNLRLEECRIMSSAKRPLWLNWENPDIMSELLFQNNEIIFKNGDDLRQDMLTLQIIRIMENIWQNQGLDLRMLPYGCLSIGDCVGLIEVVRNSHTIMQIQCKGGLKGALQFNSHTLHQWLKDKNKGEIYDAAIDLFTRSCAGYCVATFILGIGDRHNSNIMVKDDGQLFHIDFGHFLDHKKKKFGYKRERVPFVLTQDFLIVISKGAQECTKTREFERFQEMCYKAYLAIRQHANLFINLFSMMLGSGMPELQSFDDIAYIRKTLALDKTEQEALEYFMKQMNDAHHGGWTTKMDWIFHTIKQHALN
T24 sequence (Q9HCP0 whole entry): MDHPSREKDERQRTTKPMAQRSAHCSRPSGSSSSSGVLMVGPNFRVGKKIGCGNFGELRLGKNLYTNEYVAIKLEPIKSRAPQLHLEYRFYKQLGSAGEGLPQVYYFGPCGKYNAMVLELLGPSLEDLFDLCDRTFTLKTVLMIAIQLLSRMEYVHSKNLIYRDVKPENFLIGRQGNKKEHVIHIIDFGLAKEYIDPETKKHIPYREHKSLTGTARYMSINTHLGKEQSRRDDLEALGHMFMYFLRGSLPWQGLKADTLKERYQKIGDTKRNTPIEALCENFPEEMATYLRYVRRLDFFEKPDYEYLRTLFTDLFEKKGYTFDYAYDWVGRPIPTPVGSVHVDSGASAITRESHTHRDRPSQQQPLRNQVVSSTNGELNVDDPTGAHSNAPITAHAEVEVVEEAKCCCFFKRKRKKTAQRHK
T6 sequence (P42336 whole entry I800L): as the sequence (P42336 whole entry C420R) above, with R420C, I800L counted along it

`N[C@H]1CC[C@H](Nc2cc(-c3cccc(NCc4cccc(F)c4)n3)c(Cl)cn2)CC1` [i-CDK9, N2′-(trans-4-aminocyclohexyl)-5′-chloro-N6-(3-fluorobenzyl)-2,4′-bipyridine-2′,6-diamine] was tested, and the remaining binding at 1 µM (LRRK2) was 100%, the remaining binding at 1 µM (PAK4; 1 µM i-CDK9) was 100% and the remaining binding at 10 µM (PAK4; 10 µM i-CDK9) was 100%. It also gave a remaining binding at 1 µM (RIPK2; 1 µM i-CDK9) of 65%, a remaining binding at 10 µM (RIPK2; 10 µM i-CDK9) of 77% and a remaining binding at 1 µM (CDKL2; 1 µM i-CDK9) of 80%. The remaining binding at 10 µM (CDKL2; 10 µM i-CDK9) was 14%, the “% Retention on Solid Support” value (CDK2; 1 µM i-CDK9) was 85% and the “% Retention on Solid Support” value (CDK2; 10 µM i-CDK9) was 19%. The remaining binding at 1 µM (PIK3CA(I800L)) was 100%, the “% Retention on Solid Support” value (JNK1; 1 µM i-CDK9) was 80% and the “% Retention on Solid Support” value (JNK1; 10 µM i-CDK9) was 34%. It also gave a remaining binding at 1 µM (RET(V804L); 1 µM i-CDK9) of 100%, a remaining binding at 10 µM (RET(V804L); 10 µM i-CDK9) of 79% and a remaining binding at 1 µM (FGFR3(G697C); 1 µM i-CDK9) of 96%. The remaining binding at 10 µM (FGFR3(G697C); 10 µM i-CDK9) was 100%, the remaining binding at 1 µM (AURKC; 1 µM i-CDK9) was 100% and the remaining binding at 10 µM (AURKC; 10 µM i-CDK9) was 71%. For the same molecule, the remaining binding at 1 µM (ERK2; 1 µM i-CDK9) was 100%, the remaining binding at 10 µM (ERK2; 10 µM i-CDK9) was 100% and the remaining binding at 1 µM (CSNK2A2; 1 µM i-CDK9) was 100%. It also gave a remaining binding at 10 µM (CSNK2A2; 10 µM i-CDK9) of 78%, a remaining binding at 1 µM (PRKD3; 1 µM i-CDK9) of 73% and a remaining binding at 10 µM (PRKD3; 10 µM i-CDK9) of 14%. It also gave a remaining binding at 1 µM (PIK3CA(C420R); 1 µM i-CDK9) of 100%, a remaining binding at 10 µM (PIK3CA(C420R); 10 µM i-CDK9) of 100% and a remaining binding at 1 µM (AXL; 1 µM i-CDK9) of 89%. For the same molecule, the remaining binding at 10 µM (AXL; 10 µM i-CDK9) was 80%, the remaining binding at 1 µM (NEK3) was 100% and the “% Retention on Solid Support” value (MAP4K3; 1 µM i-CDK9) was 85%. For the same molecule, the “% Retention on Solid Support” value (MAP4K3; 10 µM i-CDK9) was 70%, the remaining binding at 1 µM (ADCK3; 1 µM i-CDK9) was 100% and the remaining binding at 10 µM (ADCK3; 10 µM i-CDK9) was 86%. The remaining binding at 1 µM (DYRK1B; 1 µM i-CDK9) was 0.95%, the remaining binding at 10 µM (DYRK1B; 10 µM i-CDK9) was 0.7% and the “% Retention on Solid Support” value (EPHB2; 1 µM i-CDK9) was 100%. For the same molecule, the “% Retention on Solid Support” value (EPHB2; 10 µM i-CDK9) was 66%, the remaining binding at 1 µM (MELK; 1 µM i-CDK9) was 100% and the remaining binding at 10 µM (MELK; 10 µM i-CDK9) was 95%. For the same molecule, the remaining binding at 1 µM ([1]; 1 µM i-CDK9) was 84%, the remaining binding at 10 µM ([1]; 10 µM i-CDK9) was 100% and the remaining binding at 1 µM (MAP3K3; 1 µM i-CDK9) was 100%. For the same molecule, the remaining binding at 10 µM (MAP3K3; 10 µM i-CDK9) was 93%, the “% Retention on Solid Support” value (CSNK1G1; 1 µM i-CDK9) was 81% and the “% Retention on Solid Support” value (CSNK1G1; 10 µM i-CDK9) was 93%. For the same molecule, the “% Retention on Solid Support” value (DLK; 1 µM i-CDK9) was 100%, the “% Retention on Solid Support” value (DLK; 10 µM i-CDK9) was 71% and the remaining binding at 1 µM (TESK1; 1 µM i-CDK9) was 100%. The remaining binding at 10 µM (TESK1; 10 µM i-CDK9) was 57%, the remaining binding at 1 µM (AKT1; 1 µM i-CDK9) was 100% and the remaining binding at 10 µM (AKT1; 10 µM i-CDK9) was 100%. For the same molecule, the remaining binding at 1 µM (TGFBR1; 1 µM i-CDK9) was 95%, the remaining binding at 10 µM (TGFBR1; 10 µM i-CDK9) was 100% and the remaining binding at 1 µM (AMPK-alpha2; 1 µM i-CDK9) was 83%. It also gave a remaining binding at 10 µM (AMPK-alpha2; 10 µM i-CDK9) of 88% and a remaining binding at 1 µM (CSNK1A1) of 69%.
